Our source for the IC50 values is patent publication US12552796B2, “EED inhibitor, and preparation method therefor and use thereof” (SHANGHAITECH UNIVERSITY, priority 2019, dated 2026).

The first experiment concerns cellular H3K27 methylation. Kind of experiment: Cellular H3K27 methylation assay (Western blot of H3K27me3 in HeLa cells). Type of experiment: cell-based. The following applies: Homo sapiens, 72 h; HeLa cells, 3 days, H3K27me3 level by Western blot; read-out: PD IC50.
The IC50 is the concentration at which inhibition is half-maximal. For `O=C(NCCOc1cnc(NCc2c(F)ccc3c2CCO3)n2cnnc12)C1CC1` [HJM-147], the IC50 was 95.3 nM.

Consider `O=C(Nc1cnc(NCc2c(F)ccc3c2CCO3)n2cnnc12)c1ccccc1F` [HJM-092], for which the half-inhibitory concentration (IC50) was found to be 139 nM.

`Cc1ccc(COc2cnc(NCc3c(F)ccc4c3CCO4)n3cnnc23)cn1` [HJM-130]: the IC50 came to 104 nM. On the same count and under the same terms, the figure for `O=C(c1cnc(NCc2c(F)ccc3c2CCO3)n2cnnc12)N1CCC1` [HJM-153] is 93.2 nM; for `COC1CCN(c2cnc(NCc3c(F)ccc4c3CCO4)n3cnnc23)C1` (centres unmarked) [HJM-063] it is 684 nM. On the same count and under the same terms, the same measure for `Fc1ccc2c(c1CNc1ncc(NCC3CC3)c3nncn13)CCO2` [HJM-022]: 284 nM. The same measure, in the same setting: the figure for `Fc1ccc2c(c1CNc1ncc(CCCN3CCCCC3)c3nncn13)CCO2` [HJM-008] is 112 nM. Regarding `COc1ccc(OCCOc2cnc(NCc3c(F)ccc4c3CCO4)n3cnnc23)cc1` [HJM-127], the IC50 came out at 108 nM. On the same count and under the same terms, the same measure for `O=C(Nc1cnc(NCc2c(F)ccc3c2CCO3)n2cnnc12)C1CCOC1` (centres unmarked) [HJM-038]: 187 nM; for `O=C(COc1cnc(NCc2c(F)ccc3c2CCO3)n2cnnc12)C1CC1` [HJM-146]: 150 nM. For `N#CCC(=O)Nc1cnc(NCc2c(F)ccc3c2CCO3)n2cnnc12` [HJM-074], the IC50 amounted to 554 nM. Still for that read-out and setting: the same measure for `O=C(Nc1cnc(NCc2c(F)ccc3c2CCO3)n2cnnc12)C1CCOCC1` [HJM-041]: 334 nM.

Take `Fc1ccc2c(c1CNc1ncc(OCc3cnccn3)c3nncn13)CCO2` [HJM-132]: the IC50 is 123 nM. The same measure, in the same setting: the figure for `CS(=O)(=O)Nc1cnc(NCc2c(F)ccc3c2CCO3)n2cnnc12` [HJM-065] is 363 nM. Still for that read-out and setting: the figure for `O=C(Nc1cnc(NCc2c(F)ccc3c2CCO3)n2cnnc12)C1CCCOC1` (centres unmarked) [HJM-040] is 175 nM; for `O=C(NC1CC1)c1cnc(NCc2c(F)ccc3c2CCO3)n2cnnc12` [HJM-029] it is 82.2 nM. Still for that read-out and setting: the same measure for `Fc1ccc2c(c1CNc1ncc(OCc3ccncc3)c3nncn13)CCO2` [HJM-141]: 64.4 nM; for `Fc1ccc2c(c1CNc1ncc(OCCn3cccc3)c3nncn13)CCO2` [HJM-128]: 62 nM; for `CN1CCN(C(=O)Nc2cnc(NCc3c(F)ccc4c3CCO4)n3cnnc23)CC1` [HJM-097]: 792 nM. As to `OCCN1CCC(c2cnc(NCc3c(F)ccc4c3CCO4)n3cnnc23)CC1` [HJM-058], the IC50 came out at 131 nM. On the same count and under the same terms, the same measure for `CN1CCCC(c2cnc(NCc3c(F)ccc4c3CCO4)n3cnnc23)C1` (centres unmarked) [HJM-053]: 28.8 nM. Still for that read-out and setting: the figure for `Cc1cccc(COc2cnc(NCc3c(F)ccc4c3CCO4)n3cnnc23)n1` [HJM-143] is 204 nM.

For `OC1CCC(Oc2cnc(NCc3c(F)ccc4c3CCO4)n3cnnc23)CC1` (centres unmarked) [HJM-121], the IC50 was 494 nM. On the same count and under the same terms, the same measure for `Cc1ncccc1CCc1cnc(NCc2c(F)ccc3c2CCO3)n2cnnc12` [HJM-005]: 454 nM; for `CC(C)C(=O)Nc1cnc(NCc2c(F)ccc3c2CCO3)n2cnnc12` [HJM-071]: 72.8 nM; for `COc1cccc(F)c1CNc1ncc(/C=C/CN2CCCCC2)c2nncn12` [HJM-049]: 296 nM.

As to `CS(=O)(=O)c1ccc(C(=O)Nc2cnc(NCc3c(F)ccc4c3CCO4)n3cnnc23)cc1` [HJM-093], the IC50 is 814 nM. The same measure, in the same setting: the same measure for `Fc1ccc2c(c1CNc1ncc(OCc3cncnc3)c3nncn13)CCO2` [HJM-131]: 130 nM; for `O=C(Nc1cnc(NCc2c(F)ccc3c2CCO3)n2cnnc12)N1CCOCC1` [HJM-099]: 1590 nM. On the same count and under the same terms, the same measure for `O=C(CCc1ccccc1)Nc1cnc(NCc2c(F)ccc3c2CCO3)n2cnnc12` [HJM-089]: 256 nM; for `Fc1ccc2c(c1CNc1ncc(N3CCC(F)(F)C3)c3nncn13)CCO2` [HJM-062]: 445 nM.

As to `Fc1ccc2c(c1CNc1ncc(OC3CCOC3)c3nncn13)CCO2` (centres unmarked) [HJM-018], the concentration for half-maximal inhibition (IC50) came out at 59.2 nM. Same read-out and setting: the same measure for `COc1cnc(NCc2c(F)ccc3c2CCO3)n2cnnc12` [HJM-014]: 43.7 nM. On the same count and under the same terms, the figure for `O=C(Nc1cnc(NCc2c(F)ccc3c2CCO3)n2cnnc12)C1CCCCO1` (centres unmarked) [HJM-039] is 67.2 nM; for `Fc1ccc2c(c1CNc1ncc(OC3CC(F)(F)C3)c3nncn13)CCO2` [HJM-107] it is 48.5 nM. Same read-out and setting: the figure for `Fc1ccc2c(c1CNc1ncc(OCCn3ccnc3)c3nncn13)CCO2` [HJM-144] is 71.7 nM; for `Fc1ccc2c(c1CNc1ncc(C3CCOC3)c3nncn13)CCO2` (centres unmarked) [HJM-054] it is 31.1 nM. In the case of `COc1cccc(F)c1CNc1ncc(/C=C/c2cccnc2C)c2nncn12` [HJM-046], the half-inhibitory concentration (IC50) came out at 2000 nM. For the compound `[2H]C([2H])(Nc1ncc(OC2CCOCC2)c2nncn12)c1c(F)ccc2c1CCO2` [HJM-110], the IC50 came to 32.8 nM. The same measure, in the same setting: the same measure for `COc1ccc(C(=O)Nc2cnc(NCc3c(F)ccc4c3CCO4)n3cnnc23)cc1` [HJM-090]: 198 nM; for `Fc1ccc2c(c1CNc1ncc(C3CCN(CC(F)(F)F)CC3)c3nncn13)CCO2` [HJM-057]: 40.5 nM; for `CN(C)CCOc1cnc(NCc2c(F)ccc3c2CCO3)n2cnnc12` [HJM-119]: 264 nM.

As to `COc1ccc(C(=O)Nc2cnc(NCc3c(F)ccc4c3CCO4)n3cnnc23)cn1` [HJM-091], the half-inhibitory concentration (IC50) turned out to be 291 nM.

On to `O=C(CO)Nc1cnc(NCc2c(F)ccc3c2CCO3)n2cnnc12` [HJM-075], for which the IC50 turned out to be 690 nM. Turning to `Fc1ccc2c(c1CNc1ncc(OCc3cccnc3)c3nncn13)CCO2` [HJM-140], the IC50 was found to be 21.4 nM. `Fc1ccc2c(c1CNc1ncc(OCCN3CCOCC3)c3nncn13)CCO2` [HJM-013]: the IC50 is 225 nM.

For the compound `O=C(C1CC1)N1CC(Oc2cnc(NCc3c(F)ccc4c3CCO4)n3cnnc23)C1` [HJM-115], the IC50 came out at 201 nM.

Consider `O=C(Nc1cnc(NCc2c(F)ccc3c2CCO3)n2cnnc12)C1CCC1` [HJM-035], for which the IC50 turned out to be 53.6 nM. Regarding `O=C(CN1CCOCC1)Nc1cnc(NCc2c(F)ccc3c2CCO3)n2cnnc12` [HJM-032], the IC50 is 317 nM.

Turning to `[2H]C([2H])(Nc1ncc(OC([2H])([2H])C2COC2)c2nncn12)c1c(F)ccc2c1CCO2` [HJM-112], the IC50 came to 29.4 nM. The same measure, in the same setting: the same measure for `CN(C)CC(=O)Nc1cnc(NCc2c(F)ccc3c2CCO3)n2cnnc12` [HJM-081]: 77.6 nM.

As to `Fc1ccc2c(c1CNc1ncc(C3CCN(C4CC4)CC3)c3nncn13)CCO2` [HJM-059], the half-inhibitory concentration (IC50) was 38.5 nM. Still for that read-out and setting: the figure for `CC(=O)N1CC(COc2cnc(NCc3c(F)ccc4c3CCO4)n3cnnc23)C1` [HJM-117] is 1300 nM. For `Fc1ccc2c(c1CNc1ncc(/C=C/CN3CCOCC3)c3nncn13)CCO2` [HJM-007], the IC50 worked out at 49.9 nM. Same read-out and setting: the same measure for `COCCN1CC(C(=O)Nc2cnc(NCc3c(F)ccc4c3CCO4)n3cnnc23)C1` [HJM-088]: 601 nM. Same read-out and setting: the same measure for `Fc1ccc2c(c1CNc1ncc(OCc3cnco3)c3nncn13)CCO2` [HJM-134]: 159 nM; for `CN1CC(COc2cnc(NCc3c(F)ccc4c3CCO4)n3cnnc23)C1` [HJM-116]: 550 nM. Same read-out and setting: the figure for `Fc1ccc2c(c1CNc1ncc(OCC3CC3(F)F)c3nncn13)CCO2` (centres unmarked) [HJM-108] is 126 nM. As for `Fc1ccc2c(c1CNc1ncc(OC(F)F)c3nncn13)CCO2` [HJM-150], the IC50 stood at 38.5 nM.

`O=C(Nc1cnc(NCc2c(F)ccc3c2CCO3)n2cnnc12)c1ncco1` [HJM-095]: the concentration for half-maximal inhibition (IC50) stood at 178 nM.

For `O=C(Nc1cnc(NCc2c(F)ccc3c2CCO3)n2cnnc12)c1ccncc1` [HJM-044], the IC50 came out at 288 nM. For `[2H]C([2H])(Oc1cnc(NCc2c(F)ccc3c2CCO3)n2cnnc12)C1COC1` [HJM-113], the IC50 was 59.7 nM.

Turning to `COC1CCC(Oc2cnc(NCc3c(F)ccc4c3CCO4)n3cnnc23)CC1` (centres unmarked) [HJM-122], the IC50 came to 54.9 nM. The same measure, in the same setting: the figure for `CN1CC(C(=O)Nc2cnc(NCc3c(F)ccc4c3CCO4)n3cnnc23)C1` [HJM-087] is 235 nM. Still for that read-out and setting: the same measure for `O=C(Nc1cnc(NCc2c(F)ccc3c2CCO3)n2cnnc12)c1ccno1` [HJM-096]: 89.9 nM.

Consider `[2H]C([2H])(Nc1ncc(N(C(=O)C2CC2)C([2H])([2H])[2H])c2nncn12)c1c(F)ccc2c1CCO2` [HJM-078], for which the IC50 was found to be 12.1 nM. On to `COCCC(COC)c1cnc(NCc2c(F)ccc3c2CCO3)n2cnnc12` (centres unmarked) [HJM-012], for which the IC50 is 112 nM. On to `[2H]C([2H])([2H])N(C(=O)C1CC1)c1cnc(NCc2c(F)ccc3c2CCO3)n2cnnc12` [HJM-076], for which the IC50 stood at 6.36 nM. Still for that read-out and setting: the figure for `CN(CC1CC1)C(=O)Nc1cnc(NCc2c(F)ccc3c2CCO3)n2cnnc12` [HJM-098] is 309 nM; for `Fc1ccc2c(c1CNc1ncc(OCCn3cncn3)c3nncn13)CCO2` [HJM-129] it is 389 nM; for `O=C(Nc1cnc(NCc2c(F)ccc3c2CCO3)n2cnnc12)C1CCCC1` [HJM-036] it is 160 nM. With `Fc1ccc2c(c1CNc1ncc(C3CCN(C4COC4)CC3)c3nncn13)CCO2` [HJM-060], the half-inhibitory concentration (IC50) came to 141 nM.

As for `[2H]C([2H])(Nc1ncc(OCC2COC2)c2nncn12)c1c(F)ccc2c1CCO2` [HJM-109], the IC50 was determined as 24.7 nM. As to `O[C@H]1CC[C@H](COc2cnc(NCc3c(F)ccc4c3CCO4)n3cnnc23)CC1` [HJM-125], the IC50 is 463 nM. The same measure, in the same setting: the same measure for `CC(c1cnc(NCc2c(F)ccc3c2CCO3)n2cnnc12)N1CCCCC1` (centres unmarked) [HJM-009]: 563 nM; for `Fc1ccc2c(c1CNc1ncc(OCc3ccccn3)c3nncn13)CCO2` [HJM-142]: 39.7 nM; for `CN1CCC(Oc2cnc(NCc3c(F)ccc4c3CCO4)n3cnnc23)C1=O` (centres unmarked) [HJM-135]: 286 nM. Regarding `COc1cccc(F)c1CNc1ncc(Oc2cccnc2C)c2nncn12` [HJM-048], the half-maximal inhibitory concentration (IC50) was found to be 1620 nM. Still for that read-out and setting: the figure for `COC1CCC(COc2cnc(NCc3c(F)ccc4c3CCO4)n3cnnc23)CC1` (centres unmarked) [HJM-123] is 132 nM.

Still in this experiment, the particulars now being: Homo sapiens, HeLa, 72 h, read-out: PD IC50.
For `CN(C)C(=O)Oc1cnc(NCc2c(F)ccc3c2CCO3)n2cnnc12` [HJM-151], the IC50 came out at 91.1 nM. Still for that read-out and setting: the same measure for `Fc1ccc2c(c1CNc1ncc(Nc3ccccc3)c3nncn13)CCO2` [HJM-066]: 228 nM; for `O=C(Nc1cnc(NCc2c(F)ccc3c2CCO3)n2cnnc12)c1cccnc1` [HJM-043]: 115 nM.

With `CN(C)C(=O)COc1cnc(NCc2c(F)ccc3c2CCO3)n2cnnc12` [HJM-149], the IC50 came to 546 nM.
